Tested on: gene expression in the kidney
Assay: GeneChip microarray survey of E2 regulated gene expression, kidney
Conditions: for E2: Study 2 ERbKO; for Study 1 E2 Expr (/evansm/Kidney, mouse/Study 1, U74v2/KO E2 kidney (81038)) / E2 Expr (/evansm/Kidney, mouse/Study 2, U74v2/ER bKO kidney E2 (82412)): ERbKO
Description: FIG. 1 depicts a pattern analysis generated by a GeneChip microarray analysis. […] Two hours following the final dose, the mice were euthanized and 13 tissues removed for RNA preparation. Two independent studies were performed, with total RNA pooled from two groups of three animals for each condition. Gene expression was quantified by GeneChip microarrays using murine U74 sub A arrays. Data were analyzed for patterns indicating either ERα or ERβ dependent regulation as shown. […] The number of genes in each tissue that matched the theoretical induction (↑) or repression (↓) patterns for ERα or ERβ are indicated.
FIGS. 2A-2C show a series of bar graphs showing gene expression levels of known genes regulated in the kidney in an ERα pattern. […] Expression was measured in two independent sets of animals, with two groups of animals for each treatment in each study. A gene name abbreviation is shown above each graph, with the corresponding Unigene designation shown below.
One week later, the animals were ovariectomized.
GeneChip—Total RNA was prepared separately from each individual organ by using Trizol (Invitrogen) followed by subsequent repurification on Rneasy columns (Qiagen). In general, two pools of RNA were created using equal amounts of RNA from three mice. For small organs such as pituitary, an equal amount of RNA from six animals was combined.
Target Preparation and Array Hybridization—Total RNA was used to generate biotin labeled cRNA target as described (8) which was hybridized to the murine MG_U74Av2 probe arrays (Affymetrix, Santa Clara, Calif.) for 16 h at 45° C. Eleven biotin-labeled cRNAs at defined concentration were spiked into each hybridization and used to convert average difference values to frequencies expressed as parts per million.
The resulting data set was queried for genes whose regulation was dependent on ERα or ERβ.

[1] = 1st line of INDUCTIONS (by order 100060_l_at, kallikrein 8)
[2] = 2nd line of INDUCTIONS (by order 100061_f_at, kallikrein 8)
[3] = 3rd line of INDUCTIONS (by order 95775_f_at, kallikrein 1)
[4] = 4th line of INDUCTIONS (by order 104495_f_at, kallikrein 5)
[5] = 5th line of INDUCTIONS (by order 94716_f_at, kallikrein 9)
[6] = 6th line of INDUCTIONS (by order 100422_f_at, signal transducer and activator of transcription 5A)
[7] = 7th line of INDUCTIONS (by order 100423_f_at, signal transducer and activator of transcription 5A)
[8] = 8th line of INDUCTIONS (by order 101289_f_at, M17979)

C[C@]12CC[C@@H]3c4ccc(O)cc4CC[C@H]3[C@@H]1CC[C@@H]2O [E2, 17β-estradiol]
E2 [1]: 37 | Study 1 E2 Expr (/evansm/Kidney, mouse/Study 1, U74v2/KO E2 kidney (81038)) [1]: 37 | E2 Expr (/evansm/Kidney, mouse/Study 2, U74v2/ER bKO kidney E2 (82412)) [1]: 44 | E2 Expr (/evansm/Kidney, mouse/Study 2, U74v2/WT kidney E2 (82408)) [1]: 40 | E2 Expr (/evansm/Kidney, mouse/Study 2, U74v2/WT kidney E2 (82409)) [1]: 31 | E2 [2]: 297 | Study 1 E2 Expr (/evansm/Kidney, mouse/Study 1, U74v2/KO E2 kidney (81038)) [2]: 370 | E2 Expr (/evansm/Kidney, mouse/Study 2, U74v2/ER bKO kidney E2 (82412)) [2]: 359 | E2 Expr (/evansm/Kidney, mouse/Study 2, U74v2/WT kidney E2 (82408)) [2]: 338 | E2 Expr (/evansm/Kidney, mouse/Study 2, U74v2/WT kidney E2 (82409)) [2]: 201 | E2 [3]: 291 | Study 1 E2 Expr (/evansm/Kidney, mouse/Study 1, U74v2/KO E2 kidney (81038)) [3]: 333 | E2 Expr (/evansm/Kidney, mouse/Study 2, U74v2/ER bKO kidney E2 (82412)) [3]: 361 | E2 Expr (/evansm/Kidney, mouse/Study 2, U74v2/WT kidney E2 (82408)) [3]: 345 | E2 Expr (/evansm/Kidney, mouse/Study 2, U74v2/WT kidney E2 (82409)) [3]: 234 | E2 [4]: 130 | Study 1 E2 Expr (/evansm/Kidney, mouse/Study 1, U74v2/KO E2 kidney (81038)) [4]: 125 | E2 Expr (/evansm/Kidney, mouse/Study 2, U74v2/ER bKO kidney E2 (82412)) [4]: 163 | E2 Expr (/evansm/Kidney, mouse/Study 2, U74v2/WT kidney E2 (82408)) [4]: 145 | E2 Expr (/evansm/Kidney, mouse/Study 2, U74v2/WT kidney E2 (82409)) [4]: 89 | E2 [5]: 302 | Study 1 E2 Expr (/evansm/Kidney, mouse/Study 1, U74v2/KO E2 kidney (81038)) [5]: 372 | E2 Expr (/evansm/Kidney, mouse/Study 2, U74v2/ER bKO kidney E2 (82412)) [5]: 369 | E2 Expr (/evansm/Kidney, mouse/Study 2, U74v2/WT kidney E2 (82408)) [5]: 329 | E2 Expr (/evansm/Kidney, mouse/Study 2, U74v2/WT kidney E2 (82409)) [5]: 230 | E2 [6]: 92 | Study 1 E2 Expr (/evansm/Kidney, mouse/Study 1, U74v2/KO E2 kidney (81038)) [6]: 70 | E2 Expr (/evansm/Kidney, mouse/Study 2, U74v2/ER bKO kidney E2 (82412)) [6]: 104 | E2 Expr (/evansm/Kidney, mouse/Study 2, U74v2/WT kidney E2 (82408)) [6]: 104 | E2 Expr (/evansm/Kidney, mouse/Study 2, U74v2/WT kidney E2 (82409)) [6]: 73 | E2 [7]: 72 | Study 1 E2 Expr (/evansm/Kidney, mouse/Study 1, U74v2/KO E2 kidney (81038)) [7]: 61 | E2 Expr (/evansm/Kidney, mouse/Study 2, U74v2/ER bKO kidney E2 (82412)) [7]: 58 | E2 Expr (/evansm/Kidney, mouse/Study 2, U74v2/WT kidney E2 (82408)) [7]: 80 | E2 Expr (/evansm/Kidney, mouse/Study 2, U74v2/WT kidney E2 (82409)) [7]: 44 | E2 [8]: 236 | Study 1 E2 Expr (/evansm/Kidney, mouse/Study 1, U74v2/KO E2 kidney (81038)) [8]: 282 | E2 Expr (/evansm/Kidney, mouse/Study 2, U74v2/ER bKO kidney E2 (82412)) [8]: 295 | E2 Expr (/evansm/Kidney, mouse/Study 2, U74v2/WT kidney E2 (82408)) [8]: 264 | E2 Expr (/evansm/Kidney, mouse/Study 2, U74v2/WT kidney E2 (82409)) [8]: 178 | E2 Expr (/evansm/Kidney, mouse/Study 1, U74v2/WT E2 kidney (81036)) (92232_at, U88328, cytokine inducible SH-2 containing protein 3): 45 | E2 Expr (/evansm/Kidney, mouse/Study 1, U74v2/WT E2 kidney (81036)) (93104_at, Z16410, B-cell translocation gene 1, anti-proliferative): 14 | E2 Expr (/evansm/Kidney, mouse/Study 1, U74v2/WT E2 kidney (81036)) (93374_at, AI836349, junctophilin 3): 65 | E2 Expr (/evansm/Kidney, mouse/Study 1, U74v2/WT E2 kidney (81036)) (94694_at, M69196, proprotein convertase subtillsin/kexin type 1): 27 | E2 Expr (/evansm/Kidney, mouse/Study 1, U74v2/WT E2 kidney (81036)) (94716_f_at, M17962, kallikrein 9): 380 | E2 Expr (/evansm/Kidney, mouse/Study 1, U74v2/WT E2 kidney (81036)) (94773_at, X01801, nerve growth factor, alpha): 53 | E2 Expr (/evansm/Kidney, mouse/Study 1, U74v2/WT E2 kidney (81036)) (95559_at, AI838836, RIKEN cDNA 6330403K07 gene): 74 | E2 Expr (/evansm/Kidney, mouse/Study 1, U74v2/WT E2 kidney (81036)) (95775_f_at, V00829, kallikrein 1): 370 | E2 Expr (/evansm/Kidney, mouse/Study 1, U74v2/WT E2 kidney (81036)) (95905_at, AI118078, Mm.24361): 83 | E2 Expr (/evansm/Kidney, mouse/Study 1, U74v2/WT E2 kidney (81036)) (96215_f_at, AI53421, Mm.218360): 206 | E2 Expr (/evansm/Kidney, mouse/Study 1, U74v2/WT E2 kidney (81036)) (96591_at, U24703, reelin): 43 | E2 Expr (/evansm/Kidney, mouse/Study 1, U74v2/WT E2 kidney (81036)) (96629_at, X04097, similar to TESTOSTERONE-REGULATED RP2 PROTEIN): 55 | E2 Expr (/evansm/Kidney, mouse/Study 1, U74v2/WT E2 kidney (81036)) (97353_at, AI837497, AF9Q34 NGAP-like protein): 29 | E2 Expr (/evansm/Kidney, mouse/Study 1, U74v2/WT E2 kidney (81036)) (97519_at, X13986, secreted phosphoprotein 1): 178 | E2 Expr (/evansm/Kidney, mouse/Study 1, U74v2/WT E2 kidney (81036)) (97520_s_at, X83569, neuroatin): 157 | E2 Expr (/evansm/Kidney, mouse/Study 1, U74v2/WT E2 kidney (81036)) (98055_at, AW121500, bladder cancer associated protein homolog (human)): 14 | E2 Expr (/evansm/Kidney, mouse/Study 1, U74v2/WT E2 kidney (81036)) (98437_at, U83720, caspase 3, apoptosis related cysteine protease): 39 | E2 Expr (/evansm/Kidney, mouse/Study 1, U74v2/WT E2 kidney (81036)) (98628_f_at, AF003695, hypoxia inducible factor 1, alpha subunit): 288 | E2 Expr (/evansm/Kidney, mouse/Study 1, U74v2/WT E2 kidney (81036)) (99057_at, M12379, thymus cell antigen 1, theta): 57 | E2 Expr (/evansm/Kidney, mouse/Study 1, U74v2/WT E2 kidney (81036)) (99127_at, X61506, spinocerebellar ataxia 10 homolog (human)): 66 | E2 Expr (/evansm/Kidney, mouse/Study 1, U74v2/WT E2 kidney (81036)) (99552_at, U79550, slug, chicken homolog): 19 | E2 Expr (/evansm/Kidney, mouse/Study 1, U74v2/WT E2 kidney (81036)) (99632_at, U83902, MAD2 (mitotic arrest deficient, homolog)-like 1 (yeast)): 27 | E2 Expr (/evansm/Kidney, mouse/Study 1, U74v2/WT E2 kidney (81036)) (100060_l_at, M13500, kallikrein 8): 39 | E2 Expr (/evansm/Kidney, mouse/Study 1, U74v2/WT E2 kidney (81036)) (100061_f_at, M13500, kallikrein 8): 341 | E2 Expr (/evansm/Kidney, mouse/Study 1, U74v2/WT E2 kidney (81036)) (100407_at, L38580, galanin): 98 | E2 Expr (/evansm/Kidney, mouse/Study 1, U74v2/WT E2 kidney (81036)) (100422_f_at, AJ237939, signal transducer and activator of transcription 5A): 151 | E2 Expr (/evansm/Kidney, mouse/Study 1, U74v2/WT E2 kidney (81036)) (100423_f_at, AJ237939, signal transducer and activator of transcription 5A): 96 | E2 Expr (/evansm/Kidney, mouse/Study 1, U74v2/WT E2 kidney (81036)) (100440_f_at, U76758, ankyrin 1, erythroid): 119 | E2 Expr (/evansm/Kidney, mouse/Study 1, U74v2/WT E2 kidney (81036)) (100539_at, AI841279, ?HBACH Cytosolic acyl coenzyme A thioester hydrolase): 16 | E2 Expr (/evansm/Kidney, mouse/Study 1, U74v2/WT E2 kidney (81036)) (100681_f_at, V00829): 123 | E2 Expr (/evansm/Kidney, mouse/Study 1, U74v2/WT E2 kidney (81036)) (100719_f_at, J03677, kallikrein 16): 119 | E2 Expr (/evansm/Kidney, mouse/Study 1, U74v2/WT E2 kidney (81036)) (101289_f_at, M17979): 305 | E2 Expr (/evansm/Kidney, mouse/Study 1, U74v2/WT E2 kidney (81036)) (101737_at, U12932, follicle stimulating hormone beta): 19 | E2 Expr (/evansm/Kidney, mouse/Study 1, U74v2/WT E2 kidney (81036)) (101738_at, U25145, tutetnizing hormone beta): 578 | E2 Expr (/evansm/Kidney, mouse/Study 1, U74v2/WT E2 kidney (81036)) (101870_at, V00793): 21

Reference: patent US7371207B2 (Wyeth, priority 2002, dated 2008)
